Results published in patent US20090162459A1, “Combination Therapy for Treatment of Patients with Neurological Disorders and Cerebral Infarction” (priority 2006, published 2009).

How the values were obtained:
blood coagulation = assay: Phase IV open-label study NeuroAid®/aspirin interaction in healthy volunteers, 5 coagulation tests; format: in vivo, human; settings: 11 healthy volunteers per group
Experimental: Blood samples of the subjects were collected before they received treatment and 2 and 8 hours after treatment initiation.

acute ischaemic stroke = settings: secondary stroke prevention in cerebral stroke patients, aspirin/other antiplatelets/anticoagulant; cited from earlier work
Acute Ischemic Stroke = settings: cited from earlier work
[1] = clinical stroke trials, versus placebo

SMILES	Activated Partial Prothrombine Time, Mean (blood coagulation; T + 2 hours) [s]	D-Dimer, Mean (blood coagulation; T + 2 hours) [µg/mL]	Fibrinogen, Mean (blood coagulation; T + 2 hours) [G/L]	Platelet Aggregation, Mean (blood coagulation; T + 2 hours) [Percentage]	D-Dimer, Mean (blood coagulation; T + 8 hours) [µg/mL]	Fibrinogen, Mean (blood coagulation; T + 8 hours) [G/L]	Platelet Aggregation, Mean (blood coagulation; T + 8 hours) [Percentage]	Activated Partial Prothrombine Time, Mean (blood coagulation; T = 0, before treatment) [s]	D-Dimer, Mean (blood coagulation; T = 0, before treatment) [µg/mL]	Fibrinogen, Mean (blood coagulation; T = 0, before treatment) [G/L]	Platelet Aggregation, Mean (blood coagulation; T = 0, before treatment) [Percentage]	Quick Prothrombine Time, Mean (blood coagulation; T = 0, before treatment) [s]	improvement effect (acute ischaemic stroke)	cognitive function as measured by the Mini Mental Status Examination (Acute Ischemic Stroke; [1])	functional outcome as measured by the Barthel Index and Rankin scale (Acute Ischemic Stroke; [1])	neurologic evaluation as measured by the NIH stroke scale (Acute Ischemic Stroke; [1])	complete recovery at 3 months (Acute Ischemic Stroke; oral Citicoline, acute ischemic stroke, Davalos et al. 2002)
CC(=O)Oc1ccccc1C(=O)O [Aspirin alone, Acetylsalicylic Acid]	39.0	0.16	3.2	62.87	0.16	3.0	48.01	38.8	0.16	3.2	62.82	12.9	about 1%				
C[N+](C)(C)CCOP(=O)(O)OP(=O)([O-])OC[C@H]1O[C@@H](n2ccc(N)nc2=O)[C@H](O)[C@@H]1O [Citicoline, CDP-choline]														significant difference between the groups, favoring citicoline treatment	significant difference between the groups, favoring citicoline treatment	significant difference between the groups, favoring citicoline treatment	improve complete recovery at 3 months
